Measured values: ChEMBL document CHEMBL5678816, “A Next-Generation TRK Kinase Inhibitor Overcomes Acquired Resistance to Prior TRK Kinase Inhibition in Patients with TRK Fusion-Positive Solid Tumors” (Cancer Discov, 2017)
Active and inactive are the calls of the source. No cut-off for these calls is given here.

Key:
[1] = biological target: BDNF/NT-3 growth factors receptor (Homo sapiens) (UniProt Q16620); test: Inhibition of TrkB (unknown origin) at 1 uM in presence of ATP relative to control; values are per cent of control
[2] = biological target: SRSF protein kinase 1 (Homo sapiens) (UniProt Q96SB4); test: Inhibition of SRPK1 (unknown origin) at 1 uM in presence of ATP relative to control; values are per cent of control
[3] = biological target: Macrophage colony-stimulating factor 1 receptor (Homo sapiens) (UniProt P07333); test: Inhibition of Fms (unknown origin) at 1 uM in presence of ATP relative to control; values are per cent of control
Sequence of Macrophage colony-stimulating factor 1 receptor (Homo sapiens) (P07333 whole entry): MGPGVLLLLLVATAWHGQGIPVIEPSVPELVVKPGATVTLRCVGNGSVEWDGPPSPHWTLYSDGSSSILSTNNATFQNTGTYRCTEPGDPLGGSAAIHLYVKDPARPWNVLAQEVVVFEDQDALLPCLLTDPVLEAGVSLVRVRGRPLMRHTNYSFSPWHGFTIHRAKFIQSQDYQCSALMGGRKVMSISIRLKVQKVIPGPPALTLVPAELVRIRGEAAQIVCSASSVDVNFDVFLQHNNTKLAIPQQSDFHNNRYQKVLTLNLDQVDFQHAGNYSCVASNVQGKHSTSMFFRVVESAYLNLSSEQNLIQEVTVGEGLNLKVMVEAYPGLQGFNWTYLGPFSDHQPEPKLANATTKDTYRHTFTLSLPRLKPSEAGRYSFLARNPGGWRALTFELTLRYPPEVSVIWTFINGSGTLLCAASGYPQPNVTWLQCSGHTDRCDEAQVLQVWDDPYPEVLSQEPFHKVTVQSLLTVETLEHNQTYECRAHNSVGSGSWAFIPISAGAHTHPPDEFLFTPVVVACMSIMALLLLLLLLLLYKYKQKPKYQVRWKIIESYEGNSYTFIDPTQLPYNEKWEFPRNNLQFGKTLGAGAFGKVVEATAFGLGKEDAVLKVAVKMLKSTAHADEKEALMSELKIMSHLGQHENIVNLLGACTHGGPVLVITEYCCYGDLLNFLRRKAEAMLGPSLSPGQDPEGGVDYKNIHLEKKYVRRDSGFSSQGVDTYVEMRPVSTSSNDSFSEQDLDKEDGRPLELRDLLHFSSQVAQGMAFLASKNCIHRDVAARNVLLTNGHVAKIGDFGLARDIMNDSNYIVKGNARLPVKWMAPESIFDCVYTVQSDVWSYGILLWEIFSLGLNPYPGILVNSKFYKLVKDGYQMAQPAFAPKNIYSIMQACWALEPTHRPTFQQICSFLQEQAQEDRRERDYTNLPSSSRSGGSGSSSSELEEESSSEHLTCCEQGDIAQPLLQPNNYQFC

[4] = biological target: [Pyruvate dehydrogenase (acetyl-transferring)] kinase isozyme 1, mitochondrial (Homo sapiens) (UniProt Q15118); test: Inhibition of PDK1 (unknown origin) at 1 uM in presence of ATP relative to control; values are per cent of control
[5] = biological target: Epidermal growth factor receptor (Homo sapiens) (UniProt P00533); test: Inhibition of EGFR (unknown origin) at 1 uM in presence of ATP relative to control; values are per cent of control
Sequence of Epidermal growth factor receptor (Homo sapiens) (P00533 whole entry): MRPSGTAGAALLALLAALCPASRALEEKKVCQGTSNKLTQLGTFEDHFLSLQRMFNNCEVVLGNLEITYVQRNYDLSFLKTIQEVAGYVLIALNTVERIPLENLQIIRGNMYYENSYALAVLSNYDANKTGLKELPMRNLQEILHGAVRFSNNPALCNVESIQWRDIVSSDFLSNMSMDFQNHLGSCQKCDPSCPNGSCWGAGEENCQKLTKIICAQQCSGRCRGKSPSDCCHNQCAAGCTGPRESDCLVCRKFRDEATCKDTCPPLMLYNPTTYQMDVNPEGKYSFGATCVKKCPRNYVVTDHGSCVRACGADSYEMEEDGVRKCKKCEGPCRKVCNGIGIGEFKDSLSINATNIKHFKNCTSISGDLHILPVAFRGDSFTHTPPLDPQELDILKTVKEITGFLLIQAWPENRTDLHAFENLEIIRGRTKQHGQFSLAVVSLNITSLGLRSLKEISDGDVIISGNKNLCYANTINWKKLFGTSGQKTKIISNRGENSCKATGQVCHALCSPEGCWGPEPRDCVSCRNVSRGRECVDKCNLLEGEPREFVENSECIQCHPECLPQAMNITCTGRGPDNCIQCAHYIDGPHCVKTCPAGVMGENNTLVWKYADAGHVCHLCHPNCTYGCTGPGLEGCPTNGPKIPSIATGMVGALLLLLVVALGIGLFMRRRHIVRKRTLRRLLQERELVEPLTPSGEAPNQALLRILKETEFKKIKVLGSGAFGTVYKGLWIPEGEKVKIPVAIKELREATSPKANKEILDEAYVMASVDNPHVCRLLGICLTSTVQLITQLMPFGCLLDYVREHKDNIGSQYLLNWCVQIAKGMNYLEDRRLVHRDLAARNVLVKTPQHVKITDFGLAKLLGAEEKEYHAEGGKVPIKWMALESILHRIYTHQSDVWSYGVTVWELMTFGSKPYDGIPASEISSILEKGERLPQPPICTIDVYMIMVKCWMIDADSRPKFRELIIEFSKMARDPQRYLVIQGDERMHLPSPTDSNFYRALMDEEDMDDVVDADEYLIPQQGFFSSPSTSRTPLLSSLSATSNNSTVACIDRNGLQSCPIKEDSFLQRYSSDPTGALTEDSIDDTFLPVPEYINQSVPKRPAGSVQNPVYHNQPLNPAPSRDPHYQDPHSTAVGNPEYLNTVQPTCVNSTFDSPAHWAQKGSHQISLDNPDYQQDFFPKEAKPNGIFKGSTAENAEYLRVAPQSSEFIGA

[6] = biological target: Fibroblast growth factor receptor 2 (Homo sapiens) (UniProt P21802); test: Inhibition of FGFR2 (unknown origin) at 1 uM in presence of ATP relative to control; values are per cent of control
Sequence of Fibroblast growth factor receptor 2 (Homo sapiens) (P21802 22-821 limits assumed): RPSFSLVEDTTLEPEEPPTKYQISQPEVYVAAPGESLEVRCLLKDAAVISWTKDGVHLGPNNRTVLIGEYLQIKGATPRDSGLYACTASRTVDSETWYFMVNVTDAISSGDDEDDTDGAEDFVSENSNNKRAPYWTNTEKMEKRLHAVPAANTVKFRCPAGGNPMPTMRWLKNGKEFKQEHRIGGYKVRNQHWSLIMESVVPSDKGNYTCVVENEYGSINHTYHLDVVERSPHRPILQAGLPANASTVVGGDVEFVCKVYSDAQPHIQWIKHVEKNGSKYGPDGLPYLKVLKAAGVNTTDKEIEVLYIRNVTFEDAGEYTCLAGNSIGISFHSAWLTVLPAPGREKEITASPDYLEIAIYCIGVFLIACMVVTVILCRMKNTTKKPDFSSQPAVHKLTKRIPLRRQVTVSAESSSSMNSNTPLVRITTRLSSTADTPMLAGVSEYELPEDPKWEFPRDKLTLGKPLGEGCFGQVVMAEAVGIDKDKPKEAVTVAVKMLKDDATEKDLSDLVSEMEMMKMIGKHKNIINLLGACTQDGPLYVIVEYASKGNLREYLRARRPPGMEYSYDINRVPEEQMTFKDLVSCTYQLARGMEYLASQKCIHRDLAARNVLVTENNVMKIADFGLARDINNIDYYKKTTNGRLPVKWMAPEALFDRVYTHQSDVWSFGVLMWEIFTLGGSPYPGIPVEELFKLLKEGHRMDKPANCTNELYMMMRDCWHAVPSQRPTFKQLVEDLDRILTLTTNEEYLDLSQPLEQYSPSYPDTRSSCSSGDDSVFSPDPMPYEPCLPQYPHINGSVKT

[7] = Inhibition of N-terminal 6His-tagged TRKC G696A mutant (506 to 829 residues) (unknown origin) expressed in Escherichia coli incubated for 60 mins by [gamma-33P]-ATP based TopCount NXT liquid scintillation assay; parameters: species or system Homo sapiens
[8] = Inhibition of cell proliferation in MPRIP-NTRK1 fusion positive human CUTO-3 cells incubated for 72 hrs by DAPI staining based analysis; assay type: functional; details: CUTO-3, 72 h
[9] = biological target: Casein kinase I isoform gamma-3 (Homo sapiens) (UniProt Q9Y6M4); test: Inhibition of CK1gamma3 (unknown origin) at 1 uM in presence of ATP relative to control; values are per cent of control
[10] = biological target: Casein kinase II subunit alpha' (Homo sapiens) (UniProt P19784); test: Inhibition of CK2alpha2 (unknown origin) at 1 uM in presence of ATP relative to control; values are per cent of control
Sequence of Casein kinase II subunit alpha' (Homo sapiens) (P19784 whole entry, looked up): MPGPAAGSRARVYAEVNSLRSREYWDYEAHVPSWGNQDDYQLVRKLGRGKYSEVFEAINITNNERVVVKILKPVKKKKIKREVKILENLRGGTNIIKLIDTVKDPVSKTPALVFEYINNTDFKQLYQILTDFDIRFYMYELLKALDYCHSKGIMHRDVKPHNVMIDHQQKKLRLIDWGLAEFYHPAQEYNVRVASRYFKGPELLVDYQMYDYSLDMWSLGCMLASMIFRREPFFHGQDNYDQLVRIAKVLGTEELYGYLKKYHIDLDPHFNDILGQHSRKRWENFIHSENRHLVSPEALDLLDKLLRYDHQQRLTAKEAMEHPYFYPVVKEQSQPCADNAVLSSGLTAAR

[11] = biological target: Focal adhesion kinase 1 (Homo sapiens) (UniProt Q05397); test: Inhibition of FAK (unknown origin) at 1 uM in presence of ATP relative to control; values are per cent of control
COR-L105 = test: Inhibition of cell proliferation in human COR-L105 cells upto 10 umol/L incubated for 72 hrs by DAPI staining based analysis; assay type: functional; details: dose <= 10.0 µmol/L
Homo sapiens = species: Homo sapiens; test: Inhibition of MKK4_m (unknown origin) at 1 uM in presence of ATP relative to control; values are per cent of control
TCC-SUP = test: Inhibition of cell proliferation in human TCC-SUP cells upto 10 umol/L incubated for 72 hrs by DAPI staining based analysis; assay type: functional; details: dose <= 10.0 µmol/L
[12] = biological target: Testis-specific serine/threonine-protein kinase 2 (Homo sapiens) (UniProt Q96PF2); test: Inhibition of TSSK2 (unknown origin) at 1 uM in presence of ATP relative to control; values are per cent of control
KPL-1 = test: Inhibition of cell proliferation in human KPL-1 cells upto 10 umol/L incubated for 72 hrs by DAPI staining based analysis; assay type: functional; details: dose <= 10.0 µmol/L
CHL-1 = test: Inhibition of cell proliferation in human CHL-1 cells upto 10 umol/L incubated for 72 hrs by DAPI staining based analysis; assay type: functional; details: dose <= 10.0 µmol/L
NIH3T3 [13] = test: Antitumor activity against mouse NIH3T3 cells harboring extracellular domain deleted TRKA implanted in nu/nu NCr mouse assessed as inhibition of tumor growth at 30 to 300 mg/kg, po administered twice daily for 10 days; assay type: functional, organism-based; details: dose 30-300 mg/kg, time 10.0 day
[14] = biological target: Serine/threonine-protein kinase MARK1 (Homo sapiens) (UniProt Q9P0L2); test: Inhibition of MARK1 (unknown origin) at 1 uM in presence of ATP relative to control; values are per cent of control
[15] = biological target: Ephrin type-A receptor 4 (Homo sapiens) (UniProt P54764); test: Inhibition of EphA4 (unknown origin) at 1 uM in presence of ATP relative to control; values are per cent of control
KM12 = test: Inhibition of cell proliferation in TPM3-NTRK1 fusion positive human KM12 cells incubated for 72 hrs by DAPI staining based analysis; assay type: functional; details: KM12, 72 h
NIH3T3 [16] = test: In vivo inhibition of […] in nu/nu NCr mouse implanted with mouse NIH3T3 cells harboring extracellular domain deleted […] assessed as reduction in […] phosphorylation at 10 to 100 mg/kg, po administered twice daily for 3 days and measured after 2 hrs post last dose by ELISA; assay type: functional, organism-based; details: dose 10-100 mg/kg, time 3.0 day
[17] = biological target: Mitogen-activated protein kinase kinase kinase 9 (Homo sapiens) (UniProt P80192); test: Inhibition of MLK1 (unknown origin) at 1 uM in presence of ATP relative to control; values are per cent of control
Sequence of Mitogen-activated protein kinase kinase kinase 9 (Homo sapiens) (P80192 whole entry, looked up): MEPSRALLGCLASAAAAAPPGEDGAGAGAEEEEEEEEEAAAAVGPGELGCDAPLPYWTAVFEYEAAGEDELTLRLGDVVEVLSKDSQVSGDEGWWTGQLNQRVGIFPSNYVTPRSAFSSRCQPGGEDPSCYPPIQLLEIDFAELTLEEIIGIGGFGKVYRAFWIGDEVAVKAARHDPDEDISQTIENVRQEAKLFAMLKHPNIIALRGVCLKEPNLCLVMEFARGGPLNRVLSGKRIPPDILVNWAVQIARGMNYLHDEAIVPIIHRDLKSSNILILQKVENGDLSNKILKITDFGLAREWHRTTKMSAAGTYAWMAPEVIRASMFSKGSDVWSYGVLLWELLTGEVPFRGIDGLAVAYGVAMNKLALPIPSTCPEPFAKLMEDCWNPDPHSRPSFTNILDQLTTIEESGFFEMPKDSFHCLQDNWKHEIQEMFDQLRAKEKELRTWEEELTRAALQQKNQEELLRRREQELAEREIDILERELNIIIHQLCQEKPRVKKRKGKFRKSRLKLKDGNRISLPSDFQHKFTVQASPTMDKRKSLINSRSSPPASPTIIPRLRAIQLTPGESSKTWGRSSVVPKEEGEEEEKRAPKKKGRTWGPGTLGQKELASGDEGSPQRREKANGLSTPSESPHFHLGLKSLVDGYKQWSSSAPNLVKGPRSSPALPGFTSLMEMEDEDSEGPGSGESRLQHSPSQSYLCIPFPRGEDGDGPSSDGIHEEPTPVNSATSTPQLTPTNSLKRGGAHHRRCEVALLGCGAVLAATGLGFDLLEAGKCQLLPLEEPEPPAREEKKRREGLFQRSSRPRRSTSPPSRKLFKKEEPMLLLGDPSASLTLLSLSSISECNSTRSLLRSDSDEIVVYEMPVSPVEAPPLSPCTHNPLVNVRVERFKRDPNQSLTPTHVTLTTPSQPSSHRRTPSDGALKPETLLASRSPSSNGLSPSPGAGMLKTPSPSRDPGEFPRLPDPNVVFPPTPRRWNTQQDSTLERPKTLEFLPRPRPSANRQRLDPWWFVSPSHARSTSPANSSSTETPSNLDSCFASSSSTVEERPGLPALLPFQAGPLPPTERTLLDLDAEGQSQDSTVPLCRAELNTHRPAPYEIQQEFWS

[18] = biological target: Mitogen-activated protein kinase 1 (Homo sapiens) (UniProt P28482); test: Inhibition of ERK2 (unknown origin) at 1 uM in presence of ATP relative to control; values are per cent of control
Sequence of Mitogen-activated protein kinase 1 (Homo sapiens) (P28482 whole entry): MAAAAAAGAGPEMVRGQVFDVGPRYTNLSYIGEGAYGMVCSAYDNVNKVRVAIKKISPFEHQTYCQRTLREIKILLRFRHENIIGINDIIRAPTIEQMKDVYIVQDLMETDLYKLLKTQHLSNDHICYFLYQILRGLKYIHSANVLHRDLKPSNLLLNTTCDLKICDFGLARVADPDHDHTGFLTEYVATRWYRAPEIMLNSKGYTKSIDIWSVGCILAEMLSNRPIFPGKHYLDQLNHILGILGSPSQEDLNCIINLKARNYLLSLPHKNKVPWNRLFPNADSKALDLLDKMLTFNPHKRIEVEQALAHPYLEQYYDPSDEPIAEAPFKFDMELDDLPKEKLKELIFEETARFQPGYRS

[19] = biological target: Protein kinase C alpha type (Homo sapiens) (UniProt P17252); test: Inhibition of PKCalpha (unknown origin) at 1 uM in presence of ATP relative to control; values are per cent of control
[20] = biological target: Serine/threonine-protein kinase Sgk1 (Homo sapiens) (UniProt O00141); test: Inhibition of SGK1 (unknown origin) at 1 uM in presence of ATP relative to control; values are per cent of control
[21] = biological target: Glycogen synthase kinase-3 alpha (Homo sapiens) (UniProt P49840); test: Inhibition of GSK3alpha (unknown origin) at 1 uM in presence of ATP relative to control; values are per cent of control
[22] = biological target: Angiopoietin-1 receptor (Homo sapiens) (UniProt Q02763); test: Inhibition of Tie2 (unknown origin) at 1 uM in presence of ATP relative to control; values are per cent of control

## C[C@@H]1CCc2ncc(F)cc2[C@H]2CCCN2c2ccn3ncc(c3n2)C(=O)N1 [SELITRECTINIB]
[1]
  residual activity: 0%
[2]
  residual activity: 104%
[3]
  residual activity: 87.5%
[4]
  residual activity: 101%
[5]
  residual activity: 103%
[6]
  residual activity: 96.5%
[7]
  IC50: < 2.5 nM
[8]
  IC50: ≤ 5 nM
[9]
  residual activity: 113%
[10]
  residual activity: 99%
[11]
  residual activity: 81%
COR-L105
  inhibition: inactive
Homo sapiens
  residual activity: 108%
TCC-SUP
  inhibition: inactive
[12]
  residual activity: 120%
KPL-1
  inhibition: inactive
CHL-1
  inhibition: inactive
NIH3T3 [13]
  Activity: Active
[14]
  residual activity: 94%
[15]
  residual activity: 102%
KM12
  IC50: ≤ 5 nM
NIH3T3 [16]
  inhibition: Active
[17]
  residual activity: 96.5%
[18]
  residual activity: 105%
[19]
  residual activity: 107%
[20]
  residual activity: 124%
[21]
  residual activity: 117%
[22]
  residual activity: 119%
